Measurements reported in patent US20070118211A1, “Method for preparing drug eluting medical devices and devices obtained therefrom” (priority 2003, published 2007).

Test: elution of the drug from coated stents in physiological solution (UV absorbance)
Format: physicochemical
Settings: stent with allylamine polymer deposited by cold plasma compared with stent with polymer according to the state of the art (polybutadiene layers); 1 cc physiological solution; absorbance at 261 nm; FIG. 1
Description: Next, the stents were immersed in test tubes containing 1 cc of physiological solution and the rate of elution of the drug was measured by acquiring the visible UV spectrum using a Unicam 8700 spectrophotometer and reading off the absorbance at 261 nm. The correlation between absorbance and concentration was established by measuring the absorbance of solutions of known concentration (calibration curve). The drug elution measurements were carried out at fixed time intervals and the physiological solution was changed at each measurement.
10 mg of dexamethasone were dissolved in 1 cc of ethanol and applied as described previously. The elution curves were again measured as described in example 1 and the absorbance at 264.4 nm was read off.

elution of the hydrophilic drug: significantly delays the elution
Structure (SMILES): CS(=O)(=O)O.Cc1ccc(NC(=O)c2ccc(CN3CCN(C)CC3)cc2)cc1Nc1nccc(-c2cccnc2)n1 [hydrophilic drug, 4-[(4-methyl-1-piperazinyl)methyl]-N-[4-methyl-3-[[4-(3-pyridinyl)-2-pyrimidinyl]amino]-phenyl]benzamide methanesulphonate]
